The text below walks through data of patent US9133183B2, “Imidazolidinones and analogs exhibiting anti-cancer and anti-proliferative activities” (Deciphera Pharmaceuticals, LLC, priority 2013, dated 2015).

Like-named read-outs stand apart in the source and are kept apart here. A value given as a limit tells only on which side of the number the result lay.

Test [1] deals with unphosphorylated c-FMS kinase (uFMS, Seq. ID no. 1) (Homo sapiens (Human), UniProt P07333). Nature of the test: uFMS kinase assay (ADP production coupled to pyruvate kinase/lactate dehydrogenase). It counts as biochemical. Summed up: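 Unphosphorylated FMS (10 nM) with polyE4Y 1 mg/mL and 500 μM ATP in 90 mM Tris pH 7.5, 10 mM MgCl2, 0.2% octyl-glucoside, 1% DMSO. ADP formation was coupled via pyruvate kinase/LDH to NADH oxidation, followed at A340 for 4 h at 30° C.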
Sequence of unphosphorylated c-FMS kinase (uFMS, Seq. ID no. 1) (P07333 538-972): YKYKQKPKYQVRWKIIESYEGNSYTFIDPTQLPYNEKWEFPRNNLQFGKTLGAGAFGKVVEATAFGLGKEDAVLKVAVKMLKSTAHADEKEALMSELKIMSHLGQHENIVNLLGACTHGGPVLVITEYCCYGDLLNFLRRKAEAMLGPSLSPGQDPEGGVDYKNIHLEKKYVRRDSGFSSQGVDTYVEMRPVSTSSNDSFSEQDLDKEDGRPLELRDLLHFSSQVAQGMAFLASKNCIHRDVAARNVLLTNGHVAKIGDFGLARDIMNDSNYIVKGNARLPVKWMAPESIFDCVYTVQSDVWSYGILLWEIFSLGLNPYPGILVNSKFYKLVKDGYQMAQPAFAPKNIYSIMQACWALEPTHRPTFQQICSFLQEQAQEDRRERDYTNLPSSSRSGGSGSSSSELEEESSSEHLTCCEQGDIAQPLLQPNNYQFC

The target of test [2] is unphosphorylated c-KIT kinase (uKIT, Seq. ID no. 2) (Homo sapiens (Human), UniProt P10721). The test is described as follows: uKit kinase assay (coupled pyruvate kinase/lactate dehydrogenase). The settings on record: enzymatic assay, ATP 2000 μM. Type of test: biochemical. A digest of the protocol: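 Unphosphorylated KIT (12 nM, N-terminal GST fusion) was run with 1 mg/mL polyE4Y, 2000 μM ATP and 10 mM MgCl2 in Tris buffer (pH 7.5, 0.2% octyl-glucoside, 1% DMSO). ADP was coupled via PK/LDH, with NADH loss tracked at A340 for 4 h at 30 °C. Rates at 3–4 h gave % inhibition and IC50.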
Sequence of unphosphorylated c-KIT kinase (uKIT, Seq. ID no. 2) (P10721 other isoform, or with tags, fused parts or gaps): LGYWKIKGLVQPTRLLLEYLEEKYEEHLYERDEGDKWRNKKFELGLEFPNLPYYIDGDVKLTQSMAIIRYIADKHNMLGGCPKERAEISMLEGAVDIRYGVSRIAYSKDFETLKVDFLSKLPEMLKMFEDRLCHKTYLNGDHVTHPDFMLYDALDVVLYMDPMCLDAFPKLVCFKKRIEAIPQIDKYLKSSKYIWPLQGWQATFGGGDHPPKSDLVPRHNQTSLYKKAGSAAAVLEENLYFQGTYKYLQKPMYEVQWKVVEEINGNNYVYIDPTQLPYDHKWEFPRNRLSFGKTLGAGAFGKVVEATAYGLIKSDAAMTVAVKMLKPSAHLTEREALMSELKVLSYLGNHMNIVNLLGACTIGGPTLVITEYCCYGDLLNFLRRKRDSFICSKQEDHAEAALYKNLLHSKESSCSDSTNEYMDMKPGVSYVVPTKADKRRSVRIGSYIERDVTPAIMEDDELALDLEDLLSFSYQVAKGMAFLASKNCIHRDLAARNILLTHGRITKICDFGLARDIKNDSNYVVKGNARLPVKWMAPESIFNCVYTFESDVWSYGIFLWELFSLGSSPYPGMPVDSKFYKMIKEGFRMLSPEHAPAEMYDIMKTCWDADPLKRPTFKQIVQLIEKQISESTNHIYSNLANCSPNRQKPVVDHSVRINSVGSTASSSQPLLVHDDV

Test [3] has as its target unphosphorylated PDGFRβ kinase (uPDGFRβ, Seq. ID No. 3) (Homo sapiens (Human), UniProt P09619). Nature of the test: Unphosphorylated PDGFRβ kinase assay (coupled pyruvate kinase/lactate dehydrogenase). It counts as biochemical. The settings on record: enzymatic assay, ATP 500 μM. A digest of the protocol:
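Construct residues 557-1106, unphosphorylated, 15.7 nM, with poly E4Y 2.5 mg/mL and 500 μM ATP, Tris pH 7.5, 1% DMSO, 30 °C. ADP coupled to NADH oxidation via PK/LDH, A340 followed 4 h; rate from 1.5-2.5 h versus no-compound control, IC50 from percent-inhibition series.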

For test [4], the system named is M-NFS-60 cells. The test is described as follows: M-NFS-60 cell proliferation assay (resazurin). The settings on record: 67 h incubation. It counts as cell-based. A digest of the protocol:
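Cells kept in medium containing 20 ng/mL mouse recombinant M-CSF. Fluorescence was read at ex 540/em 600 nm, and IC50 was fitted from percent inhibition across a range of inhibitor concentrations.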
Background: The colour change of resazurin is a common sign of viable cells or microbes.

The test system of test [5] is osteoclast precursors. Nature of the test: Osteoclast tartrate-resistant acid phosphatase assay. Type of test: cell-based. To be noted: Osteoclast, 7-14 days, RANKL and M-CSF.
Test [6] has as its target c-FMS kinase in THP-1 cells (Homo sapiens (Human), UniProt P07333). The test is described as follows: Phospho-FMS ELISA assay in THP-1 cells. It counts as cell-based. As for the experimental part:
THP-1 cells (catalog #TIB-202) were obtained from the ATCC. Briefly, cells were grown in RPMI 1640 supplemented with 10% characterized fetal bovine serum, 1% sodium pyruvate, 1% Penicillin-Streptomycin-Glutamine (PSG) and 55 uM 2-mercaptoethanol (Invitrogen, Carlsbad, Calif.) at 37 degrees Celsius, 5% CO2, 95% humidity. Cells were allowed to expand until reaching 70-95% confluency at which point they were subcultured or harvested for assay use.
A serial dilution of test compound was diluted 1:100 in assay medium (RPMI 1640 supplemented with 10% characterized fetal bovine serum) in a 96 well black clear bottom plate (Corning, Corning, N.Y.). In a separate 96 well black clear bottom plate, one hundred and fifty thousand THP-1 cells were added per well in 100 μL in assay medium. Fifty microliters of diluted compound was then added to the cells. Plates were incubated for 4 hours at 37 degrees Celsius, 5% CO2, 95% humidity. At the end of the incubation period, cells were stimulated with 50 μL of a 100 nM solution of recombinant human M-CSF (catalog #216-MC, R & D Systems, Minneapolis, Minn.) in assay medium and the plate was incubated for 5 minutes at 37 degrees Celsius, 5% CO2, 95% humidity. Lysates were prepared and used to perform the phospho-FMS ELISA as described by the manufacturer (catalog #DYC3268, R & D Systems, Minneapolis, Minn.). GraphPad Prism was used to calculate IC50 values obtained from data generated from the ELISA assay.
(In general: ELISA stands for enzyme-linked immunosorbent assay.)

Test [7] concerns the target cMET kinase (Homo sapiens (Human), UniProt P08581). The test is described as follows: cMET kinase inhibition (Table 4). Type of test: biochemical.
The target in test [8] is KDR kinase (Homo sapiens (Human), UniProt P35968). Nature of the test: KDR kinase inhibition (Table 4). It counts as biochemical.
Sequence of KDR kinase (P35968 20-1356): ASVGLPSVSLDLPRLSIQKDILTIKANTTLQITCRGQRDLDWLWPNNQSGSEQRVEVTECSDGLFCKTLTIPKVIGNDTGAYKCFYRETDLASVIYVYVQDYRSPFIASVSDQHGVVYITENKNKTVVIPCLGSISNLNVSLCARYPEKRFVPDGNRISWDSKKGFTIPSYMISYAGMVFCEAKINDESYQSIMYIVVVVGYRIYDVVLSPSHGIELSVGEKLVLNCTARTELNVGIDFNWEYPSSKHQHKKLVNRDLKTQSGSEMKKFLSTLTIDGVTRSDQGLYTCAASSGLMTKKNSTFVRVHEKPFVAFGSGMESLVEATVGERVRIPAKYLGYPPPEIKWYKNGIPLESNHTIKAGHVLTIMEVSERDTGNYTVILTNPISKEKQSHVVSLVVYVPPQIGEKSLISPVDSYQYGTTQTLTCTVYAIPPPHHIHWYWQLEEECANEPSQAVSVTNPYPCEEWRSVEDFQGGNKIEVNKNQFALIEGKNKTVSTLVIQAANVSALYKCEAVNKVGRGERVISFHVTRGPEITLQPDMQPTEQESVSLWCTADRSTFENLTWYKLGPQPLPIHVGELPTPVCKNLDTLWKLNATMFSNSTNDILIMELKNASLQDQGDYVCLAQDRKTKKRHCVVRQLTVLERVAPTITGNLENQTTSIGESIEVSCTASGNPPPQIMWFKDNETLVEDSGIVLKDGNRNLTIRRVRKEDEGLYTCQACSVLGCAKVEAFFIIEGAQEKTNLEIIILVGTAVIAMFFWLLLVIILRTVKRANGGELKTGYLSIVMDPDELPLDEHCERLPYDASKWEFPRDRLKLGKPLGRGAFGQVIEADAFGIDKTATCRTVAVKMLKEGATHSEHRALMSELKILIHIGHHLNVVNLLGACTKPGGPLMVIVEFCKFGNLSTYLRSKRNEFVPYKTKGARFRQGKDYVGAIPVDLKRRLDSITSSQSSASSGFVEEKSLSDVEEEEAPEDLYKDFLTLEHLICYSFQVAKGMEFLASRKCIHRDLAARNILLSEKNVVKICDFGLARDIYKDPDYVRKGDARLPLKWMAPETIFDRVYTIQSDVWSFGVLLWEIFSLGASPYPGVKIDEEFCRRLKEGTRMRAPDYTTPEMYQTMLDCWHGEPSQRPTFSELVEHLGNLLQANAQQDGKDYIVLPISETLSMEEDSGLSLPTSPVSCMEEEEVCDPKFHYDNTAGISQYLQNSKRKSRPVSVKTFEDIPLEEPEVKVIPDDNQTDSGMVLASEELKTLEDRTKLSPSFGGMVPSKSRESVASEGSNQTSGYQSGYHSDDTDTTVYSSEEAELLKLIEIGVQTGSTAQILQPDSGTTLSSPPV
[9] abbreviates: uFMS, enzymatic assay, ATP 500 μM.
[10] abbreviates: enzymatic assay, ATP 500 μM, read-out: uFMS.
Setting [11] is: 4 h compound, M-CSF stimulation 5 min, read-out: pFMS inhibition in THP-1 cells.

Sequence of cMET kinase (P08581 25-1390): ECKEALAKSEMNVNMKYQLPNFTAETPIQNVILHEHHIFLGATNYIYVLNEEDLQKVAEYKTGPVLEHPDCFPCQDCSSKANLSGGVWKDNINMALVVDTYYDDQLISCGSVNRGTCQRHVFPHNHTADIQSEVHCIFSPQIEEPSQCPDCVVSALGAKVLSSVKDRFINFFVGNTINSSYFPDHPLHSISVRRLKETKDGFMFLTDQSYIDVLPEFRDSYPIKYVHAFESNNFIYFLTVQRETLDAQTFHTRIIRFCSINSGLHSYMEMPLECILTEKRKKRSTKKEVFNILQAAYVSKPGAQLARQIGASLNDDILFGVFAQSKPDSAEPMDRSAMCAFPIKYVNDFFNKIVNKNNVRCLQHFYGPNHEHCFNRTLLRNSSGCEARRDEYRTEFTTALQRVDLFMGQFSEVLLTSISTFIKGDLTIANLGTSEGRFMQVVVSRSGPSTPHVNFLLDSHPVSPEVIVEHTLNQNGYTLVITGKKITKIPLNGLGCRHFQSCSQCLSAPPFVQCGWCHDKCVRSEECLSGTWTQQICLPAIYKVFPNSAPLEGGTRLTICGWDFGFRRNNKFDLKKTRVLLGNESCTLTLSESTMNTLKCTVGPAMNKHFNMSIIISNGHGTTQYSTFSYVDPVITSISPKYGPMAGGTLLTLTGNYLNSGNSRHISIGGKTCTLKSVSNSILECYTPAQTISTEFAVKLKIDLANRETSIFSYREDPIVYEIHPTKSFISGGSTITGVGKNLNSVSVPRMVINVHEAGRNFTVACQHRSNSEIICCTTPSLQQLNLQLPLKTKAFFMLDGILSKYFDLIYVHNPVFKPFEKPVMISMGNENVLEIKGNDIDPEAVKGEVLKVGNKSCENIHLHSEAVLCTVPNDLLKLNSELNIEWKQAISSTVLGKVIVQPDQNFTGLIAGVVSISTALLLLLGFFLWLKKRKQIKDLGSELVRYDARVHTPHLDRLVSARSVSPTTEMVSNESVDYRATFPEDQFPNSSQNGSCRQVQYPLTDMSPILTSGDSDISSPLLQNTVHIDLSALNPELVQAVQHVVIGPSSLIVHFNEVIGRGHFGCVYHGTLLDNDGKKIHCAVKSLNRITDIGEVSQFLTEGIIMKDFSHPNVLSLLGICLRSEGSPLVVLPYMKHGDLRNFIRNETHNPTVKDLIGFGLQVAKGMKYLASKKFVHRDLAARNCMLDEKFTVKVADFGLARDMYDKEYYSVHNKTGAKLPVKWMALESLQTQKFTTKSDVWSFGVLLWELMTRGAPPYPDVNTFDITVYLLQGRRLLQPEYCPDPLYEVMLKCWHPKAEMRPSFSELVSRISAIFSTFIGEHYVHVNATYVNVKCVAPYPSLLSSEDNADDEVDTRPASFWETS
Sequence of c-FMS kinase in THP-1 cells (P07333 20-972): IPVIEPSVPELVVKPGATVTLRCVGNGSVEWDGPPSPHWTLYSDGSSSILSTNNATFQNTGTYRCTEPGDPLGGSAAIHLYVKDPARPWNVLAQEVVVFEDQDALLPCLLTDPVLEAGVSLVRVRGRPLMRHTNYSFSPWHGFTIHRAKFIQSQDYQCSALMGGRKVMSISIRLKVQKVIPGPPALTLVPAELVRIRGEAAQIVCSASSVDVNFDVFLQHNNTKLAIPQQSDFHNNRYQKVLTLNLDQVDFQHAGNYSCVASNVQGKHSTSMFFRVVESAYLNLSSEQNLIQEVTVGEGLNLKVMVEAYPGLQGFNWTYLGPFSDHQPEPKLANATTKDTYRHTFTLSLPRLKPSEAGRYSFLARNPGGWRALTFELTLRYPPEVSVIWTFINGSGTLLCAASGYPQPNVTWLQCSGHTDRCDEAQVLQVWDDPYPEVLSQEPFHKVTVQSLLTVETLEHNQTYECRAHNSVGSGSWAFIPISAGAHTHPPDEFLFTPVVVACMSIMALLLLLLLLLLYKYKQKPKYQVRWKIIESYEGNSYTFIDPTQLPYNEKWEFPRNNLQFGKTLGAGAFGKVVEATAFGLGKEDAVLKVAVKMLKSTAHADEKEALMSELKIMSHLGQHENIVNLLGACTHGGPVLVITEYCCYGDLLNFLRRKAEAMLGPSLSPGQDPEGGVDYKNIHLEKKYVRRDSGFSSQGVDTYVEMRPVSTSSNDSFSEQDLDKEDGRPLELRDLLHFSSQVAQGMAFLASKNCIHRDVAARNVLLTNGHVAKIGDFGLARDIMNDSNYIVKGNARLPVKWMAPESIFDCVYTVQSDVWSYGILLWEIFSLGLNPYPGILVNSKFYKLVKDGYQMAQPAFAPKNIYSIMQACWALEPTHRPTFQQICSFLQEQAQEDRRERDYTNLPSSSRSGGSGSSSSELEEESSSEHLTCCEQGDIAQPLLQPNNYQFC

Turning to `Cc1nc(NC(=O)N2CCN(C3CCOC3)C2=O)ccc1Oc1ccnc(-c2cnn(C)c2)c1` (stereo in doubt) [Example 23, (S)—N-(6-methyl-5-((2-(1-methyl-1H-pyrazol-4-yl)pyridin-4-yl)oxy)pyridin-2-yl)-2-oxo-3-(tetrahydrofuran-3-yl)imidazolidine-1-carboxamide], the IC50 in test [1] (setting [9]) is 10 to 100 nM; in test [2] it was over 1000 nM; in test [3], over 1000 nM; in test [4], 10 to 100 nM; in test [5], 10 to 100 nM; in test [6], 10 to 100 nM.

With `O=C(Nc1ccc(Oc2ccnc(-c3cn[nH]c3)c2)cn1)N1CCN(C2CCOCC2)C1=O` [Example 5, N-(5-((2-(1H-pyrazol-4-yl)pyridin-4-yl)oxy)pyridin-2-yl)-2-oxo-3-(tetrahydro-2H-pyran-4-yl)imidazolidine-1-carboxamide], the IC50 in test [1] (setting [9]) was in the range of 10 to 100 nM; in test [3], 100 to 1000 nM; in test [4], 10 to 100 nM; in test [5], 10 to 100 nM; in test [6], 100 to 1000 nM.

Regarding `Cn1cc(-c2cc(Oc3ccc(NC(=O)N4CCN(C5CCOCC5)C4=O)nc3)ncn2)cn1` [Example 8, N-(5-((6-(1-methyl-1H-pyrazol-4-yl)pyrimidin-4-yl)oxy)pyridin-2-yl)-2-oxo-3-(tetrahydro-2H-pyran-4-yl)imidazolidine-1-carboxamide], the IC50 lay in the range of 10 to 100 nM in test [1] (setting [10]), 100 to 1000 nM in test [4], 10 to 100 nM in test [5] and 10 to 100 nM in test [6] (setting [11]).

Regarding `Cc1nc(NC(=O)N2CCN(C3CCOCC3)C2=O)ccc1Oc1ccnc(-c2cn[nH]c2)c1` [Example 9, N-(5-((2-(1H-pyrazol-4-yl)pyridin-4-yl)oxy)-6-methylpyridin-2-yl)-2-oxo-3-(tetrahydro-2H-pyran-4-yl)imidazolidine-1-carboxamide], the IC50 is 10 to 100 nM in test [1] (setting [10]), 100 to 1000 nM in test [4], 10 to 100 nM in test [5] and 10 to 100 nM in test [6] (setting [11]).

With `Cc1cc(-c2cc(Oc3ccc(NC(=O)N4CCN(C5CCOCC5)C4=O)nc3C)ccn2)on1` [Example 14, N-(6-methyl-5-((2-(3-methylisoxazol-5-yl)pyridin-4-yl)oxy)pyridin-2-yl)-2-oxo-3-(tetrahydro-2H-pyran-4-yl)imidazolidine-1-carboxamide], the IC50 in test [1] (setting [10]) was 10 to 100 nM; in test [3], over 1000 nM; in test [4], 100 to 1000 nM; in test [5], 10 to 100 nM; in test [6] (setting [11]), 100 to 1000 nM.

On to `Cn1cc(-c2cc(Oc3ccc(NC(=O)N4CCN(C5CCCCC5)C4=O)nc3)ccn2)cn1` [Example 15, 3-cyclohexyl-N-(5-((2-(1-methyl-1H-pyrazol-4-yl)pyridin-4-yl)oxy)pyridin-2-yl)-2-oxoimidazolidine-1-carboxamide], for which the IC50 in test [1] (Table 4, read-out: c-FMS IC50) was 3 nM; in test [1] (setting [10]) it was under 10 nM; in test [3], 10 to 100 nM; in test [4], under 10 nM; in test [5], under 10 nM; in test [6] (setting [11]), 10 to 100 nM. Moreover, the IC50 amounted to 370 nM in test [7] and 670 nM in test [8].

Consider `[2H]C([2H])([2H])n1cc(-c2cc(Oc3ccc(NC(=O)N4CCN([C@@H]5CCOC5)C4=O)nc3C)ccn2)cn1` [Example 37, (R)—N-(6-methyl-5-((2-(1-(trideuteromethyl)-1H-pyrazol-4-yl)pyridin-4-yl)oxy)pyridin-2-yl)-2-oxo-3-(tetrahydrofuran-3-yl)imidazolidine-1-carboxamide], for which the IC50 in test [1] (setting [9]) is 10 to 100 nM; in test [2] it was 100 to 1000 nM; in test [3], over 1000 nM; in test [4], 10 to 100 nM; in test [5], 10 to 100 nM; in test [6], 10 to 100 nM.

As for `CNC(=O)c1cc(Oc2ccc(NC(=O)N3CCN(C(C)(C)C)C3=O)nc2)ccn1` [Example 90, 4-((6-(3-(tert-butyl)-2-oxoimidazolidine-1-carboxamido)pyridin-3-yl)oxy)-N-methylpicolinamide], the IC50 in test [1] (Table 4, read-out: c-FMS IC50) is 5 nM; in test [1] (setting [10]), under 10 nM; in test [2] it was 10 to 100 nM; in test [3], 10 to 100 nM; in test [4], 10 to 100 nM; in test [5], 10 to 100 nM. The IC50 in test [7] is over 5000 nM; in test [8], 3300 nM.

For the molecule `Cn1cc(-c2cc(Oc3cc(F)c(NC(=O)N4CCN(C5CCOCC5)C4=O)cc3F)ccn2)cn1` [Example 91, N-(2,5-difluoro-4-((2-(1-methyl-1H-pyrazol-4-yl)pyridin-4-yl)oxy)phenyl)-2-oxo-3-(tetrahydro-2H-pyran-4-yl)imidazolidine-1-carboxamide], the IC50 in test [1] (Table 4, read-out: c-FMS IC50) was 7 nM; in test [1] (setting [10]), under 10 nM; in test [2] it was 100 to 1000 nM; in test [4], 10 to 100 nM; in test [5] it was 10 to 100 nM; in test [6] (setting [11]), 10 to 100 nM. Further, the IC50 in test [7] is over 5000 nM; in test [8], over 3300 nM.

`Cn1cc(-c2cc(Oc3cc(F)c(NC(=O)N4CCN(C5CCOCC5)C4=O)cc3Cl)ccn2)cn1` [Example 92, N-(5-chloro-2-fluoro-4-((2-(1-methyl-1H-pyrazol-4-yl)pyridin-4-yl)oxy)phenyl)-2-oxo-3-(tetrahydro-2H-pyran-4-yl)imidazolidine-1-carboxamide]: the IC50 in test [1] (setting [10]) is under 10 nM; in test [2], 10 to 100 nM; in test [4], 10 to 100 nM; in test [5], 10 to 100 nM; in test [6] (setting [11]) it was 10 to 100 nM.

For the molecule `O=C(Nc1cc(Cl)c(Oc2ccnc(-c3cn[nH]c3)c2)cc1F)N1CCN(C2CCOCC2)C1=O` [Example 94, N-(4-((2-(1H-pyrazol-4-yl)pyridin-4-yl)oxy)-5-chloro-2-fluorophenyl)-2-oxo-3-(tetrahydro-2H-pyran-4-yl)imidazolidine-1-carboxamide], the IC50 in test [1] (setting [10]) fell in the range of 10 to 100 nM; in test [4], 100 to 1000 nM; in test [5], 100 to 1000 nM; in test [6] (setting [11]) it was 10 to 100 nM.

Consider `Cn1cc(-c2cc(Oc3ccc(NC(=O)N4CCN(C5CCOCC5)C4=O)cc3Cl)ccn2)cn1` [Example 96, N-(3-chloro-4-((2-(1-methyl-1H-pyrazol-4-yl)pyridin-4-yl)oxy)phenyl)-2-oxo-3-(tetrahydro-2H-pyran-4-yl)imidazolidine-1-carboxamide], for which the IC50 was 10 to 100 nM in test [1] (setting [10]), over 1000 nM in test [4], 100 to 1000 nM in test [5] and 10 to 100 nM in test [6] (setting [11]).

Turning to `CC(=O)Nc1cc(Oc2cc(F)c(NC(=O)N3CCN(C4CCOCC4)C3=O)cc2Cl)ccn1` [Example 97, N-(4-((2-acetamidopyridin-4-yl)oxy)-5-chloro-2-fluorophenyl)-2-oxo-3-(tetrahydro-2H-pyran-4-yl)imidazolidine-1-carboxamide], the IC50 was 10 to 100 nM in test [1] (setting [10]), 100 to 1000 nM in test [4], 100 to 1000 nM in test [5] and 100 to 1000 nM in test [6] (setting [11]).

As to `CN(C)C(=O)Nc1cc(Oc2cc(F)c(NC(=O)N3CCN(C4CCOCC4)C3=O)cc2Cl)ccn1` [Example 101, N-(5-chloro-4-((2-(3,3-dimethylureido)pyridin-4-yl)oxy)-2-fluorophenyl)-2-oxo-3-(tetrahydro-2H-pyran-4-yl)imidazolidine-1-carboxamide], the IC50 in test [1] (Table 4, read-out: c-FMS IC50) was 8 nM; in test [1] (setting [10]), under 10 nM; in test [3] it was 100 to 1000 nM; in test [4], 10 to 100 nM; in test [5], under 10 nM; in test [6] (setting [11]) it was 10 to 100 nM. Besides, the values for the IC50 in test [7] and in test [8] were 4000 nM and over 3300 nM, respectively.
